Tests used:
[1] = test system: larvae of the cabbage white butterfly (Pieris brassicae); experiment: Mortality of larvae of the cabbage white butterfly on treated cabbage leaf; type: in vivo; conditions: Table 3; cabbage leaf dipped in test solution, mortality after 24 + 24 hours, two replicates; 2880 min
Method: This example illustrates the activity of compounds of the invention against larvae of the cabbage white butterfly (Pieris brassicae).
(§1) Ten larvae were placed in a tube together with a square inch of cabbage leaf which had been dipped in the test solution and allowed to dry. After twenty-four hours untreated cabbage was added for food and after a further twenty-four hours an assessment was made of the mortality of the larvae.

aphid Megoura viciae = experiment: Aphids on sprayed broad bean plants; type: in vivo; conditions: Table 6; sprayed infested broad bean plants, 24 hours
Method: Broad bean plants 3 to 5 cm. high were infested with aphids and then sprayed with an aqueous dispersion containing varying concentrations of test compound. Each plant was kept under a lamp glass for 24 hours and then examined. In this way an LD50 value for the compounds was calculated.

[2] = test system: larvae of the diamond back moth (Plutella maculipennis); experiment: Mortality of larvae of the diamond back moth on treated cabbage leaf; type: in vivo; conditions: Table 1; cabbage leaf dipped in test solution, mortality after 24 + 24 hours, two replicates; 2880 min
Method: as §1
Two replicates were carried out for each test compound and test solutions of varying concentrations employed so that an LD50 value could be calculated.

[3] = test system: larvae of the codling moth (Cydia pomonella); experiment: Codling moth larvae on sprayed apple (number of strikes); type: in vivo; conditions: Table 5, after five days, two replicates, 7200 min
From the text: This example illustrates the activity of compounds of the invention against the larvae of the codling moth (Cydia pomonella).
An apple sprayed with test solution was allowed to dry and a perspex ring of 1 inch diameter was attached to the apple. Ten larvae were then placed on the apple surface and contained within the ring by means of a muslin covering. After five days an assessment of mortality was made by counting the number of strikes (i.e. the number of entry holes) made by the larvae.

[4] = test system: nematode Meloidogyne incognita incognita; experiment: Root knots of tomato plants in nematode-infested treated soil; type: in vivo; conditions: 100 parts per million per unit volume of soil, 30° C., ten days; untreated controls average more than 20 knots
Method: This example illustrates the activity of compounds of the invention against the nematode Meloidogyne incognita incognita.
Small tomato plants were transferred to containers with infested soil. Sufficient test compound to give a concentration of 100 parts per million per unit volume of soil was poured onto the soil and the containers suspended in warm water at 30° C.
After ten days the plants were knocked out of the containers and the roots washed clean, the number of knots being noted. The latter was an indication of activity and a low score indicated high activity.

Mammalian toxicity = type: in vivo; conditions: in words
insects = experiment: Insecticidal activity; type: in vivo; conditions: in words
[5] = test system: eggs of the cabbage root fly (Erioischia brassicae); experiment: Egg hatch of cabbage root fly eggs in test solution; type: in vivo; conditions: Table 4; eggs stored six days, egg hatch counted, two replicates; 8640 min
From the text: This example illustrates the activity of compounds of the invention against the eggs of the cabbage root fly (Erioischia brassicae).
The eggs were then stored for six days and the egg hatch then counted.

[6] = acute
[7] = acute; remark: listed apart in the source

Molecule	ACTIVITY LD50 [1]	ACTIVITY LD50 (aphid Megoura viciae)	ACTIVITY LD50 [2]	ACTIVITY LD50 [3]	number of knots on roots [4]	other results
C#CCSc1nc(C(C)C)nn1C(=O)N(C)C [methyl methyl isopropyl prop-2-ynyl, 1(2)-N,N-dimethylcarbamoyl-3-isopropyl-5-prop-2-ynylthio-1,2,4-triazole]	31 p.p.m.	1.5 p.p.m.	87 p.p.m.			
1(2)-N,N-dimethylcarbamoyl-3-t-butyl-5-ethylthio-1,2,4-triazole [methyl methyl t-butyl ethyl]		0.71 p.p.m.		24 p.p.m.	≤ 2 knots	
1(2)-N,N-dimethylcarbamoyl-3-isopropyl-5-methylthio-1,2,4-triazole [methyl methyl isopropyl methyl]	59 p.p.m.	1.1 p.p.m.	160 p.p.m.	37 p.p.m.		
1(2)-N,N-dimethylcarbamoyl-3-isopropyl-5-ethylthio-1,2,4-triazole [methyl methyl isopropyl ethyl]			140 p.p.m.	< 10 p.p.m.		
1(2)-N,N-dimethylcarbamoyl-3-t-butyl-5-vinylthio-1,2,4-triazole [methyl methyl t-butyl vinyl]		0.61 p.p.m.	160 p.p.m.		≤ 2 knots	
CSc1nc(C(C)(C)C)nn1C(=O)N(C)C [methyl methyl t-butyl methyl, 1-N,N-dimethylcarbamoyl-3-t-butyl-5-methylthio-1,2,4-triazole]					≤ 2 knots	mammalian toxicity (Mammalian toxicity): too high to permit the more widespread use; insecticidal activity (insects): insecticidally active
1(2)-N,N-dimethylcarbamoyl-3-isopropyl-5-propylthio-1,2,4-triazole [methyl methyl isopropyl propyl]		1.6 p.p.m.	220 p.p.m.	< 10 p.p.m.		ACTIVITY LD50 [5]: 0.57 p.p.m.
1(2)-N,N-dimethylcarbamoyl-3-s-butyl-5-ethylthio-1,2,4-triazole [methyl methyl s-butyl ethyl]		0.66 p.p.m.	220 p.p.m.	18 p.p.m.		
1(2)-N,N-dimethylcarbamoyl-3-s-butyl-5-propylthio-1,2,4-triazole [methyl methyl s-butyl propyl]		0.86 p.p.m.	320 p.p.m.	10 p.p.m.		
C#CCSc1nc(C(C)(C)C)nn1C(=O)N(C)C [methyl methyl t-butyl prop-2-ynyl, 1(2)-N,N-dimethylcarbamoyl-3-t-butyl-5-prop-2-ynylthio-1,2,4-triazole]	27 p.p.m.	1.1 p.p.m.	33 p.p.m.		≤ 2 knots	ACTIVITY LD50 [5]: 0.8 p.p.m.
1(2)-N,N-dimethylcarbamoyl-3-t-butyl-5-but-2-enylthio-1,2,4-triazole [methyl methyl t-butyl but-2-enyl]	27 p.p.m.	0.19 p.p.m.	220 p.p.m.	10 p.p.m.	≤ 2 knots	mammalian toxicity (Mammalian toxicity): low mammalian toxicity; mammalian toxicity when presented as a powder formulation (Mammalian toxicity; (wettable) powder formulation, listed as first compound): sufficiently low; mammalian toxicity when presented as a powder formulation (Mammalian toxicity; wettable powder formulation): sufficiently low mammalian toxicity; Oral toxicity (rat) LD50 [6]: 40 to 80 mg/kg; Oral toxicity (mouse) LD50 [7]: 80 to 160 mg/kg; ACTIVITY LD50 [5]: 1.2 p.p.m.; Dermal toxicity (rat) LD50 (acute, dermal, rat): 40 mg/kg; effect of wettable powder formulation on dermal toxicity (in words, wettable powder formulation): reduces the dermal toxicity; insecticidal activity (insects): high insecticidal activity
1(2)-N,N-dimethylcarbamoyl-3-s-butyl-5-methylthio-1,2,4-triazole [methyl methyl s-butyl methyl]		0.32 p.p.m.	140 p.p.m.	14 p.p.m.		

Reference: US4255435A, “Triazole compounds” (priority 1980, dated 1981)
